In the NIST ThermoML archive (doi:10.1021/acs.jced.8b00358):

Experiments:
[1] = molar heat capacity at constant pressure; settings: 83 kPa, Liquid, DSC
[2] = 83 kPa, Liquid; for speed of sound: Frequency=3 MHz, Single path-length method; for mass density: Vibrating tube method

CCCCCCCCC(=O)OCC(COC(=O)CCCCCCCC)(COC(=O)CCCCCCCC)COC(=O)CCCCCCCC [pentaerythritol tetranonanoate]
Settings | mass density [kg/m3] | molar heat capacity at constant pressure [J/K/mol] | speed of sound [m/s]
[1], 313.13 K | – | 1352.3 | –
[1], 314.13 K | – | 1354.3 | –
[1], 315.14 K | – | 1355.7 | –
[1], 316.13 K | – | 1357.8 | –
[1], 317.14 K | – | 1359.9 | –
[1], 318.13 K | – | 1362 | –
[1], 319.13 K | – | 1363.4 | –
[1], 320.14 K | – | 1365.5 | –
[1], 321.13 K | – | 1367.6 | –
[1], 322.13 K | – | 1369 | –
[1], 323.14 K | – | 1371.1 | –
[1], 324.13 K | – | 1373.2 | –
[1], 325.13 K | – | 1374.6 | –
[1], 326.13 K | – | 1376.6 | –
[1], 327.13 K | – | 1378.7 | –
[1], 328.14 K | – | 1380.8 | –
[1], 329.14 K | – | 1382.9 | –
[1], 330.13 K | – | 1384.3 | –
[1], 331.13 K | – | 1386.4 | –
[1], 332.13 K | – | 1388.5 | –
[1], 333.13 K | – | 1390.6 | –
[1], 334.13 K | – | 1392.7 | –
[1], 335.13 K | – | 1394.8 | –
[1], 336.14 K | – | 1396.9 | –
[1], 337.13 K | – | 1399 | –
[1], 338.13 K | – | 1401 | –
[1], 339.13 K | – | 1403.1 | –
[1], 340.13 K | – | 1405.2 | –
[1], 341.14 K | – | 1406.6 | –
[1], 342.14 K | – | 1408.7 | –
[1], 343.13 K | – | 1410.8 | –
[1], 344.13 K | – | 1412.9 | –
[1], 345.14 K | – | 1415 | –
[1], 346.13 K | – | 1417.1 | –
[1], 347.13 K | – | 1419.2 | –
[1], 348.13 K | – | 1421.3 | –
[1], 349.13 K | – | 1423.4 | –
[1], 350.14 K | – | 1425.4 | –
[1], 351.13 K | – | 1427.5 | –
[1], 352.13 K | – | 1429.6 | –
[1], 353.14 K | – | 1431.7 | –
[1], 354.13 K | – | 1433.8 | –
[1], 355.14 K | – | 1435.9 | –
[1], 356.13 K | – | 1438 | –
[1], 357.13 K | – | 1440.1 | –
[1], 358.13 K | – | 1442.2 | –
[1], 359.13 K | – | 1444.3 | –
[1], 360.13 K | – | 1446.4 | –
[1], 361.13 K | – | 1448.4 | –
[1], 362.13 K | – | 1450.5 | –
[1], 363.13 K | – | 1452.6 | –
[1], 364.13 K | – | 1454.7 | –
[1], 365.13 K | – | 1456.8 | –
[1], 366.13 K | – | 1458.9 | –
[1], 367.13 K | – | 1461 | –
[1], 368.13 K | – | 1463.1 | –
[1], 369.13 K | – | 1465.2 | –
[1], 370.13 K | – | 1467.3 | –
[1], 371.13 K | – | 1469.4 | –
[1], 372.13 K | – | 1471.4 | –
[1], 373.13 K | – | 1473.5 | –
[1], 374.14 K | – | 1475.6 | –
[1], 375.14 K | – | 1477.7 | –
[1], 376.13 K | – | 1479.8 | –
[1], 377.13 K | – | 1481.9 | –
[1], 378.13 K | – | 1484 | –
[1], 379.13 K | – | 1486.1 | –
[1], 380.14 K | – | 1488.2 | –
[1], 381.13 K | – | 1491 | –
[1], 382.13 K | – | 1493.1 | –
[1], 383.13 K | – | 1495.1 | –
[1], 384.13 K | – | 1497.2 | –
[1], 385.13 K | – | 1499.3 | –
[1], 386.13 K | – | 1501.4 | –
[1], 387.13 K | – | 1503.5 | –
[1], 388.13 K | – | 1505.6 | –
[1], 389.13 K | – | 1507.7 | –
[1], 390.13 K | – | 1509.8 | –
[1], 391.13 K | – | 1511.9 | –
[1], 392.13 K | – | 1514 | –
[1], 393.13 K | – | 1516.1 | –
[1], 394.13 K | – | 1518.1 | –
[1], 395.14 K | – | 1520.2 | –
[1], 396.13 K | – | 1523 | –
[1], 397.13 K | – | 1525.1 | –
[1], 398.13 K | – | 1527.2 | –
[1], 399.13 K | – | 1529.3 | –
[1], 400.13 K | – | 1531.4 | –
[1], 401.13 K | – | 1533.5 | –
[1], 402.14 K | – | 1535.6 | –
[1], 403.13 K | – | 1537.7 | –
[1], 404.14 K | – | 1539.8 | –
[1], 405.13 K | – | 1541.8 | –
[1], 406.13 K | – | 1543.9 | –
[1], 407.13 K | – | 1546 | –
[1], 408.13 K | – | 1548.1 | –
[1], 409.13 K | – | 1550.9 | –
[1], 410.14 K | – | 1553 | –
[1], 411.13 K | – | 1554.4 | –
[1], 412.14 K | – | 1557.2 | –
[2], 283.15 K | 961.49 | – | 1438.9
[2], 288.15 K | 957.85 | – | 1421.7
[2], 293.15 K | 954.2 | – | 1404.7
[2], 298.15 K | 950.58 | – | 1387.9
[2], 303.15 K | 946.97 | – | 1371.5
[2], 308.15 K | 943.37 | – | 1355.2
[2], 313.15 K | 939.77 | – | 1339.1
[2], 318.15 K | 936.18 | – | 1323.2
[2], 323.15 K | 932.6 | – | 1307.5
[2], 328.15 K | 929.02 | – | 1292
[2], 333.15 K | 925.45 | – | 1276.6
[2], 338.15 K | 921.88 | – | 1261.4
[2], 343.15 K | 918.32 | – | 1246.4
